How the values were obtained:
Δ Fos B = assay: Western blot of Δ Fos B accumulation in striatum; set-up: species or system mice; settings: mouse, in vivo
Protocol: After behavioral testing, mice again received their assigned injection and then, 45 minutes later, were decapitated under anesthesia. Tissue samples were processed as follows. Briefly, the brain was dissected, rapidly frozen on dry ice, and stored at −80° C. Striatal tissue was collected from 100 μm coronal slices cut at the level of striatum using a cryostat (Leica CM1950, Leica Biosystems Inc, Buffalo Groove, Ill.). Striatal samples from the intact and the lesioned hemisphere were separately collected in 150p1 of lysis solution (Totally RNA, Ambion, Austin, Tex.). Care was taken to make sure that the tissue samples were collected from similar regions in all the brain samples analyzed, since there are differences in the expression of GRKs from rostral to caudal CPu. […] Western blots were quantified using band densitometry in Image J software (NIH version). […] Results are represented as group mean±SEM and analyzed using one-way or repeated-measures ANOVA (RM-ANOVA), with post hoc Bonferroni tests. The mouse cylinder test was analyzed with RM-ANOVA, with group (DOPA and DOPA-ranitidine formulations) as a between-group factor and saline vs. DOPA treatment as a within-group factor. AIMs scores were analyzed using the Kruskal Wallis test for pre-testing (DOPA injected animals) and the Mann-Whitney U test for the post-testing sessions (DOPA vs DOPA-ranitidine formulations). […]

ERK = assay: Western blot of ppERK and total ERK in striatum; assay type: in vivo, mice; settings: 45 minutes after last injection
Protocol: (§1) After behavioral testing, mice again received their assigned injection and then, 45 minutes later, were decapitated under anesthesia. Tissue samples were processed as follows. Briefly, the brain was dissected, rapidly frozen on dry ice, and stored at −80° C. Striatal tissue was collected from 100 μm coronal slices cut at the level of striatum using a cryostat (Leica CM1950, Leica Biosystems Inc, Buffalo Groove, Ill.). Striatal samples from the intact and the lesioned hemisphere were separately collected in 150p1 of lysis solution (Totally RNA, Ambion, Austin, Tex.). Care was taken to make sure that the tissue samples were collected from similar regions in all the brain samples analyzed, since there are differences in the expression of GRKs from rostral to caudal CPu. […]
(§2) Western blots were quantified using band densitometry in Image J software (NIH version). […] Results are represented as group mean±SEM and analyzed using one-way or repeated-measures ANOVA (RM-ANOVA), with post hoc Bonferroni tests. The mouse cylinder test was analyzed with RM-ANOVA, with group (DOPA and DOPA-ranitidine formulations) as a between-group factor and saline vs. DOPA treatment as a within-group factor. AIMs scores were analyzed using the Kruskal Wallis test for pre-testing (DOPA injected animals) and the Mann-Whitney U test for the post-testing sessions (DOPA vs DOPA-ranitidine formulations). […]

SAPK/JNK = assay: Western blot of phospho SAPK/JNK and total SAPK/JNK in striatum; assay type: in vivo, mice
Protocol: as §1, §2

Compound | Δ Fos B accumulation on the lesioned side (Δ Fos B) | ERK phosphorylation (ppERK) in the lesioned hemisphere (ERK) | phospho JNK level in both the intact and the lesioned hemispheres (SAPK/JNK; no differences between hemispheres) | phosphorylation of p54 versus the ranitidine/DOPA formulation groups (SAPK/JNK; ranitidine alone group)
N[C@@H](Cc1ccc(O)c(O)c1)C(=O)O [L-DOPA, L-3,4-dihydroxyphenylalanine] | significantly increased on the lesioned side | increased | elevated | 
CN/C(=C\[N+](=O)[O-])NCCSCc1ccc(CN(C)C)o1 [Ranitidine, N-(2-[(5-[(dimethylamino)methyl]furan-2-yl)methylthio]ethyl)-N′-methyl-2-nitroethene-1,1-diamine] | no effects | increased |  | reduced in both the intact and lesioned hemispheres

From patent publication US20190054051A1, “DOPA Formulations for Treatments of Parkinson's Disease” (The Board of Trustees of the Leland Stanford Junior …, priority 2017, published 2019)
